How the values were obtained:
Format in all cases: biochemical
MMP-1 = molecular target: T1, MMP-1 (Homo sapiens, UniProt P03956); assay: In vitro MMP-1 inhibition test
T1 construct: purchased R&D Systems 901-MP
T1 sequence (P03956 100-469): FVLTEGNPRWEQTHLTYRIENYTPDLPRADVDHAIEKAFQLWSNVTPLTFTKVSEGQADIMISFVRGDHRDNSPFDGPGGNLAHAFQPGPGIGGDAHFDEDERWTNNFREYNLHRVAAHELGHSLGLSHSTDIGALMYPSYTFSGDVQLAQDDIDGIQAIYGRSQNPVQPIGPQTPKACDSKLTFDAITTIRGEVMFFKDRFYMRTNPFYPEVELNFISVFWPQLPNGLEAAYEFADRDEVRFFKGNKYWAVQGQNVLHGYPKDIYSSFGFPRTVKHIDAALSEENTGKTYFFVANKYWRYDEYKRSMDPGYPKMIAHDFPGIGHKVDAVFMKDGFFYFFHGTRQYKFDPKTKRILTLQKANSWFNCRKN
From the text: (§1) The MMP-mediated amidolytic cleavage of a suitable peptide substrate leads to an increase in fluorescent light here too. The signal intensity of the fluorescent light is directly proportional to the enzyme activity. The active concentration of a test compound at which half the enzyme is inhibited (50% signal intensity of the fluorescent light) is reported as the IC50 value.
(§2) Recombinant MMP-1 (from R&D Systems, 901-MP) is chemically activated in accordance with the manufacturer's instructions using APMA. 1 μl of the test compound to be analysed (as a solution in DMSO, suitable concentrations, for example, 1 nM to 30 μM) is pipetted into 24 μl of activated enzyme (final concentration, for example, 2 nM) in reaction buffer (50 mM Tris/HCl pH 7.5, 10 mM CaCl2, 150 mM NaCl, 0.05% Brij®-35) in a white 384-hole microtiter plate (MTP). The enzymatic reaction is started by adding the intramolecularly quenched Mca-Pro-Leu-Gly-Leu-Dpa(Dnp)-Ala-Arg-NH2 substrate (final concentration, for example, 10 μM; R&D Systems, ES-001), so as to result in a total test volume of 50 μl. The course of the MMP-1 reaction is measured by measuring the fluorescence intensity (excitation 320 nm, emission 410 nm) over a suitable period of time (for example over 120 min at a temperature of 32° C.).

MMP-2 = molecular target: T2, MMP-2 (Homo sapiens, UniProt P08253); assay: In vitro MMP-2 inhibition test
T2 construct: purchased R&D Systems 902-MP
T2 sequence (P08253 110-660): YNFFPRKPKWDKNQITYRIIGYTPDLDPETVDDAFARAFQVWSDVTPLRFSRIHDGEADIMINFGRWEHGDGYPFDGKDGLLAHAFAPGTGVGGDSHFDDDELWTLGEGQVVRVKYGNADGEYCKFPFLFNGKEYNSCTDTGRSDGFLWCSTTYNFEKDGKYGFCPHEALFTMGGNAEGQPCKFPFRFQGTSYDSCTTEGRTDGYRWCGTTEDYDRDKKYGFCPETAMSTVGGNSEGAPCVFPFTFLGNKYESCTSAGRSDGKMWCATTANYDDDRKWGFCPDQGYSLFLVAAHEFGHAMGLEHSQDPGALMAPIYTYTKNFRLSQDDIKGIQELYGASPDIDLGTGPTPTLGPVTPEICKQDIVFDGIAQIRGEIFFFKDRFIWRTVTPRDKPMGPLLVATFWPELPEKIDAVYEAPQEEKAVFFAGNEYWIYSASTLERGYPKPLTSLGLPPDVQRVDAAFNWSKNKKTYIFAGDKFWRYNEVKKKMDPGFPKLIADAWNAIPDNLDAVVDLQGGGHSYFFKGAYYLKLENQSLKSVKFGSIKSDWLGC
From the text: as §1
as §2, with “MMP-2” for “MMP-1”, “902-MP)” for “901-MP)”

MMP-7 = molecular target: T3, MMP-7 (Homo sapiens, UniProt P09237); assay: In vitro MMP-7 inhibition test
T3 construct: purchased R&D Systems 907-MP
T3 sequence (P09237 95-267): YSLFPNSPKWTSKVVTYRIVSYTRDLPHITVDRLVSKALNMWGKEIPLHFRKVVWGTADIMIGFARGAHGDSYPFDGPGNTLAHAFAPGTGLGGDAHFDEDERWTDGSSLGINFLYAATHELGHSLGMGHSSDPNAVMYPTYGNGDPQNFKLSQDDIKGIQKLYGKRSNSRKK
From the text: as §1
as §2, with “Recombinant MMP-7” for “Recombinant MMP-1”, “Systems, 907-MP)” for “Systems, 901-MP)”, “example, 0.5” for “example, 2”, “[…]” for “50 μl.”, “the MMP-7” for “the MMP-1”

O=C(O)[C@@H]1[C@@H](Cn2nnc3ccc(C(F)(F)F)cc3c2=O)CC[C@H]1C(=O)c1ccc(OCCC2CCCC2)cc1 (single isomer, unassigned) [Example 55, (+)-(1RS,2RS,5SR)-2-[4-(2-Cyclopentylethoxy)benzoyl]-5-{[4-oxo-6-(trifluoromethyl)-1,2,3-benzotriazin-3(4H)-yl]methyl}cyclopentanecarboxylic acid]
IC50 (MMP-1): 15 µM
IC50 (MMP-2): 1.3 µM
IC50 (MMP-7): 0.26 µM

O=C(O)[C@H]1[C@H](Cn2nnc3ccc(C(F)(F)F)cc3c2=O)CC[C@@H]1C(=O)c1ccc(OCc2ccc(F)cc2)cc1 (racemic) [Example 12, (+/−)-(1RS,2RS,5SR)-2-{4-[(4-Fluorobenzyl)oxy]benzoyl}-5-{[4-oxo-6-(trifluoromethyl)-1,2,3-benzotriazin-3(4H)-yl]methyl}cyclopentanecarboxylic acid]
IC50 (MMP-1): 2.5 µM
IC50 (MMP-2): 0.042 µM
IC50 (MMP-7): 0.16 µM

O=C(O)[C@H]1[C@H](Cn2nnc3ccccc3c2=O)CC[C@@H]1C(=O)c1ccc(OCc2cccc(Cl)c2)cc1 (racemic) [Example 2, (+/−)-(1RS,2RS,5SR)-2-{4-[(3-Chlorobenzyl)oxy]benzoyl}-5-[(4-oxo-1,2,3-benzotriazin-3(4H)-yl)methyl]cyclopentanecarboxylic acid]
IC50 (MMP-1): > 40 µM
IC50 (MMP-2): 0.29 µM
IC50 (MMP-7): 5.3 µM

O=C(O)[C@H]1[C@H](Cn2nnc3ccc(C(F)(F)F)cc3c2=O)CC[C@@H]1C(=O)c1ccc(OCC2CCCCC2)cc1 (racemic) [Example 40, (+/−)-(1RS,2RS,5SR)-2-[4-(Cyclohexylmethoxy)benzoyl]-5-{[4-oxo-6-(trifluoromethyl)-1,2,3-benzotriazin-3(4H)-yl]methyl}cyclopentanecarboxylic acid]
IC50 (MMP-1): 3.8 µM
IC50 (MMP-2): 0.44 µM
IC50 (MMP-7): 0.26 µM

CCCCCOc1ccc(C(=O)[C@H]2CC[C@@H](Cn3nnc4ccc(C)cc4c3=O)[C@@H]2C(=O)O)cc1 (racemic) [Example 123, (+/−)-(1RS,2SR,5RS)-2-[(6-Methyl-4-oxo-1,2,3-benzotriazin-3(4H)-yl)methyl]-5-[4-(pentyloxy)benzoyl]cyclopentanecarboxylic acid]
IC50 (MMP-1): 24 µM
IC50 (MMP-2): 0.17 µM
IC50 (MMP-7): 0.39 µM

O=C(O)[C@H]1[C@H](Cn2nnc3ccc(C(F)(F)F)cc3c2=O)CC[C@@H]1C(=O)c1ccc(SCc2ccc(Cl)c(Cl)c2)cc1 (racemic) [Example 79, (+/−)-(1RS,2RS,5SR)-2-{4-[(3,4-Dichlorobenzyl)sulphanyl]benzoyl}-5-{[4-oxo-6-(trifluoromethyl)-1,2,3-benzotriazin-3(4H)-yl]methyl}cyclopentanecarboxylic acid]
IC50 (MMP-1): 15 µM
IC50 (MMP-2): 4 µM
IC50 (MMP-7): 1.3 µM

O=C(O)[C@@H]1[C@@H](Cn2nnc3ccc(C(F)(F)F)cc3c2=O)CC[C@H]1C(=O)c1ccc(OCC2CCCC2)cc1 (single isomer, unassigned) [Example 44, (+)-(1RS,2RS,5SR)-2-[4-(Cyclopentylmethoxy)benzoyl]-5-{[4-oxo-6-(trifluoromethyl)-1,2,3-benzotriazin-3(4H)-yl]methyl}cyclopentanecarboxylic acid]
IC50 (MMP-1): 3.6 µM
IC50 (MMP-2): 0.27 µM
IC50 (MMP-7): 0.14 µM

Cc1ccc2nnn(C[C@@H]3CC[C@H](C(=O)c4ccc(OCc5cccc(OC(F)(F)F)c5)cc4)[C@H]3C(=O)O)c(=O)c2c1 (racemic) [Example 109, (+/−)-(1RS,2SR,5RS)-2-[(6-Methyl-4-oxo-1,2,3-benzotriazin-3(4H)-yl)methyl]-5-(4-{[3-(trifluoromethoxy)benzyl]oxy}benzoyl)cyclopentanecarboxylic acid]
IC50 (MMP-1): > 40 µM
IC50 (MMP-2): 1.1 µM
IC50 (MMP-7): 1.7 µM

O=C(O)[C@@H]1[C@@H](Cn2nnc3ccc(C(F)(F)F)cc3c2=O)CC[C@H]1C(=O)c1ccc(OCC2CCCCC2)cc1 (single isomer, unassigned) [Example 41, (+)-(1RS,2RS,5SR)-2-[4-(Cyclohexylmethoxy)benzoyl]-5-{[4-oxo-6-(trifluoromethyl)-1,2,3-benzotriazin-3(4H)-yl]methyl}cyclopentanecarboxylic acid]
IC50 (MMP-1): 3.1 µM
IC50 (MMP-2): 0.097 µM
IC50 (MMP-7): 0.068 µM

COc1cccc(COc2ccc(C(=O)[C@@H]3CC[C@H](Cn4nnc5ccc(C)cc5c4=O)[C@H]3C(=O)O)cc2)c1 (single isomer, unassigned) [Example 107, (+)-(1RS,2RS,5SR)-2-{4-[(3-Methoxybenzyl)oxy]benzoyl}-5-[(6-methyl-4-oxo-1,2,3-benzotriazin-3(4H)-yl)methyl]cyclopentanecarboxylic acid]
IC50 (MMP-1): 11 µM
IC50 (MMP-2): 0.3 µM
IC50 (MMP-7): 0.2 µM

O=C(O)[C@@H]1[C@@H](Cn2nnc3ccc(C(F)(F)F)cc3c2=O)CC[C@H]1C(=O)c1ccc(SCc2cccc(Cl)c2)cc1 (single isomer, unassigned) [Example 77, (+)-(1RS,2RS,5SR)-2-{4-[(3-Chlorobenzyl)sulphanyl]benzoyl}-5-{[4-oxo-6-(trifluoromethyl)-1,2,3-benzotriazin-3(4H)-yl]methyl}cyclopentanecarboxylic acid]
IC50 (MMP-1): 2.9 µM
IC50 (MMP-2): 0.97 µM
IC50 (MMP-7): 0.15 µM

Cc1cccc(COc2ccc(C(=O)[C@@H]3CC[C@H](Cn4nnc5ccc(C)cc5c4=O)[C@H]3C(=O)O)cc2)c1 (single isomer, unassigned) [Example 98, (+)-(1RS,2RS,5SR)-2-{4-[(3-Methylbenzyl)oxy]benzoyl}-5-[(6-methyl-4-oxo-1,2,3-benzotriazin-3(4H)-yl)methyl]cyclopentanecarboxylic acid]
IC50 (MMP-1): 9.6 µM
IC50 (MMP-2): 0.44 µM
IC50 (MMP-7): 0.33 µM

Cc1cccc(COc2ccc(C(=O)[C@H]3CC[C@@H](Cn4nnc5ccc(C)cc5c4=O)[C@@H]3C(=O)O)cc2)c1 (racemic) [Example 97, (+/−)-(1RS,2RS,5SR)-2-{4-[(3-Methylbenzyl)oxy]benzoyl}-5-[(6-methyl-4-oxo-1,2,3-benzotriazin-3(4H)-yl)methyl]cyclopentanecarboxylic acid]
IC50 (MMP-1): > 40 µM
IC50 (MMP-2): 2.3 µM
IC50 (MMP-7): 1.5 µM
